Measurements taken from patent US20100154083A1, “Methods and Compositions for the Selection of A Transgenic Plant” (Pioneer Hi-Bred International, Inc., priority 2006, published 2010).

Tested on: non-transgenic maize seed from inbred N46
Test: Priming matrix additive: Dormex + DMSO
Format: in vivo
Conditions: 1% DMSO without Dormex, 3 hours
Method: Non-transgenic maize seed from inbred N46 were primed with 0, 5, 10, 15, or 30% Dormex® solutions with and without 1% DMSO. For each treatment, 96 seeds were soaked in 50 ml of Dormex® solution in a petri dish for 3 hours at room temperature. After priming the seeds were transferred into pollination bags, and dried overnight in front of a fan. Dried primed seed were then planted into flats to germinate.

## C[S+](C)[O-] [DMSO]
  Germination %: 93%
